Data published in US20050214285A1, “Epitopes or mimotopes derived from the C-epsilon-3 or C-epsilon-4 domains of IgE, antagonists thereof, and their therapeutic uses” (SmithKline Beecham Biologicals, s.a. and Peptide …, priority 1999, published 2005).

Each sequence was assayed on PTmAb0011 (assay: Phage display ranking of peptide ligands for PTmAb0011). Details: IgEC67 mutants (Table 8).
Type: binding, mouse
From the text: (§1) Phage display libraries were used to map the binding sites of the monoclonal antibodies using three different phage libraries, displaying either the XCX15, XCX10 or XAX10 peptide sequence (where X is any amino acid) at the N-terminus of the phage gVIIIp. Tables 6 and 7 show the results of selecting for peptide ligands with the anti human IgE monoclonal antibodies […]. […]
(§2) This involved a DNA sub-cloning transfer from the major coat protein (gVIIIp) filamentous phage display vector to a lower copy number minor phage coat protein (gIIIp) display vector with a random PCR step. […] Included in the tables are ranking orders and also BIAcore affinities where available.

Sequence | PTmAb Rank 0011
ADGAACFMNKQMADLELCPRVAAEA [IgEC67-2] | 1.8
ADGAECFMNKQLADSELCPRVAAEA [IgEC67-13] | 0.8
ADGAGCFINKQLADLELCPREAAEA [IgEC67-12] | 1.9
ADGAGCFINKQLADLELCPRVAAEA [IgEC67-3] | 1.7
ADGAGCFMNKQLADLELCPREAAEA [IgEC67-7] | 1

Same assay, conditions: primary phage display biopannings (Table 7)

Sequence | Rank (ECL) PTmAb0011
ACFSRNGQVTDVPHSCY [EEC41] | 31
DCEEPMCSPVLLQKLKP [EEC17/47/25] | 147
DCLSKGQMADLC [EED147/173] | 281
DCVVDGDRLVCL [EED34/104] | 3
ECNQNLSGSLRHVDLNC [EEC40] | 547
ECPRWPLMGDGC [EED139] | 26
FCPEPICSPPLSRMTLS [EEC147] | 883
GCPMWPQPDDEC [EED132] | 28
GCPTWPRVGDHC [EED36] | 52
GCQVGELVWCRE [EED134] | 14
HCEEPEYSPATRVFCGR [EEC51/48/53] | 75
HCQQVFFPQDYLWCQRG [EEC36] | 158
KCPTYPKPNDRCLWPVP [EEC135] | 19
MCQGWEIVSECW [EED57] | 0
NCNDNPMLDCMPAWSS [EEC5] | 0
NCQDQMLREDAGCWSKI [EEC40A] | 80
QCVRDGTRKVCM [EED33] | 7
RCDQQLPRDSYTFCMMS [EEC115/3/48] | 438
RCEQGALRCVGE [EED41/56] | 0
RCQSARVVPECW [EED131/138/102] | 32
SCAPSGDCGYKG [EED18/47/48] | 31
SCQGREVRRECW [EED183] | 596
TCGQSELRCASLETHHV [EEC55] | 0
TCLVDRQESDVC [EED50] | 6
VCDECVSRELAL [EED35/53/164] | 330
VCDECVSRELAL [EED35/153/164] | 118
VCPPGWKNLGCN [EED51] | 0
WCLEPECAPGLL [EED38] | 330
YCPKYPLEGDCLLDNDY [EEC116] | 4

These sequences were tested on PTmAb0005 (assay: Phage display ranking of peptide ligands for PTmAb0005). Details: IgEC67-8 mutants (Table 9).
Type: binding
Experimental: as §1
This was performed by introducing random mutations by PCR mutagenesis and sub-cloning into the Fuse 5 vector for minor filamentous phage protein gIIIp display. These, and other results, confirmed the importance of the amino acids within IgEC67 which aligned with the Cε2 epitope. […] Mutations in other sites had little effect on the affinity to PTmAb0005.
as §2

Sequence | Rel. Rank A | Rel. Rank B
ADGAECFINKQMADRELCAREVAEA [Peptide 2-12, IgEC67-8 mutant clone] | 1.22 | 1.50
ADGAECFINKQRADLELCPGEAAEA [4-2,4-3, IgEC67-8 mutant clone] | 1.11 | 1.60
ADGAECFINRQMADLELCGREAAEA [Peptide 4-4, IgEC67-8 mutant clone] | 0.69 | 1.03
ADGAGCFIDKQMADLELCPRAAAEA [1-9,2-5, IgEC67-8 mutant clone] | 1.21 | 1.41
ADGAGCFIEKQMADMELCQARAAEA [Peptide 1-8, IgEC67-8 mutant clone] | 1.08 | 1.32
ADGAGCFIEKQMADMELCQRETAEA [Peptide 1-1, IgEC67-8 mutant clone] | 1.04 | 1.29
ADGAGCFIKKQMADLELCPREAWEA [Peptide 4-1, IgEC67-8 mutant clone] | 1.24 | 1.52
ADGAGCFINKQMADLELCPARAAEA [Peptide 1-7, IgEC67-8 mutant clone] | 0.91 | 1.25
ADGAGCFINKQMADLELCPREAAEA [2-8,1-13,4-11,1-14, IgEC67-8 sub-library clone] | 1.00 | 1.00
ADGAGCFINKQMADLELCPREGAEA [1-4,1-2,1-12, IgEC67-8 mutant clone] | 1.37 | 1.39
ADGAGCFINKQMADLELCPRQAAEA [3-1,3-9,3-10, IgEC67-8 mutant clone] | 1.54 | 1.85
ADGAGCFINKQMADLELCPSQAAEA [Peptide 4-9, IgEC67-8 mutant clone] | 1.38 | 1.70
ADGAGCFINKQMADLELCRREAGEA [2-9,2-6, IgEC67-8 mutant clone] | 1.19 | 1.54
ADGAGCFINKQMADLELCTREAAEA [Peptide 3-11, IgEC67-8 mutant clone] | 1.54 | 2.02
ADGAGCFINKQMADMELCPREAAEA [Peptide 2-3, IgEC67-8 mutant clone] | 1.03 | 1.31
ADGAGCFINKQMADSELCPAAAAEA [Peptide 1-10, IgEC67-8 mutant clone] | 1.10 | 1.08

Sequence | Rel. Rank A | Rel. Rank B
ADGAGCFINKQMADSELCPREPAEA [Peptide 5-16, IgEC67-8 mutant clone] | 1.29 | 1.83
ADGAGCFINKQMADWELCPREAAEA [Peptide 5-10, IgEC67-8 mutant clone] | 1.05 | 1.83
ADGAGCFINKQMADWELCPREGAEA [Peptide 2-15, IgEC67-8 mutant clone] | 1.44 | 1.57
ADGAGCFINKQMSDFELCPREAGEA [Peptide 2-13, IgEC67-8 mutant clone] | 1.56 | 2.14
ADGAGCFINMQMADQELCPRAAAEA [Peptide 1-3, IgEC67-8 mutant clone] | 1.73 | 1.31
ADGAGCFINNQMADLELCPREAAEA [Peptide 5-2, IgEC67-8 mutant clone] | 1.04 | 1.24
ADGAGCFINNQMADLELCPRGGAEA [Peptide 1-11, IgEC67-8 mutant clone] | 1.45 | 1.32
ADGAGCFINRQLADMELCSRGAAEA [2-11,2-4,2-10,2-7, IgEC67-8 mutant clone] | 0.79 | 1.39
ADGAGCFINRQMADPELCPREAAEA [Peptide 5-11, IgEC67-8 mutant clone] | 1.09 | 1.97
ADGAGCFISPQLADWKRCMREAAEA [6-9,5-1,6-2,6-8,6-4] | 1.53 | 1.19
ADGAGCFKNKQMVDSELCARQAAEA [Peptide 1-16, IgEC67-8 mutant clone] | 1.14 | 1.17
ADGAGCFQNKQMADLELCPREAAEA [Peptide 1-5, IgEC67-8 mutant clone] | 1.13 | 1.73
ADGAGCFRNKQMADLELCPREAAEA [Peptide 1-6, IgEC67-8 mutant clone] | 0.95 | 1.16
ADGAGCSIHRQMADWERCLREGAEA [Peptide 6-10] | 0.91 | 0.69
ADGAGCSIHTQMADWERCLREGAEA [6-12,5-8] | 0.93 | 0.67

Same assay, conditions: IgEC67 mutants (Table 8)

Sequence | PTmAb Rank 0005
ADGAACFMNKQMADLELCPRVAAEA [IgEC67-2] | 3.2
ADGAECFMNKQLADSELCPRVAAEA [IgEC67-13] | 1.1
ADGAGCFINKQLADLELCPREAAEA [IgEC67-12] | 3
ADGAGCFINKQLADLELCPRVAAEA [IgEC67-3] | 3
ADGAGCFMNKQLADLELCPREAAEA [IgEC67-7] | 1

Same assay, conditions: primary phage display biopannings (Table 6)

Sequence | Rank (ECL) PTmAb0005
AENDQMVDWEI [SB21/33/31] | 0
CAPGMGCWESVK [ESB13] | 0
CCESDIPLNELHALADP [IgEC70] | 0
CCEVDDFPTHHPGWTLR [ESC4] | 0
CCITDVPQGVMYKGSPD [ESC18] | 0
CCKSDIPSPVTQFNTMK [IgEC64] | 0
CCLSDDAPTLPVRR [IgEC75] | 0
CCMADQELDLGHNAANA [ESC20] | 0
CCMSDTPDISRLPVPDS [IgEC72] | 0
CCMTDDPMDPNSTWAIR [ESC12] | 0
CCMTDDPMYTNSTWAIR [ESC43] | 0
CCQRDVELVFGS [ESD38] | 0
CCRADFEVGNGG [ESD15] | 0
CCVDDTPNSGLAMRVSK [ESC1] | 0
CCVMDIEVRGSA [ESD14] | 0
CCVMDLELASGF [ESD36] | 0
CCVSDEPAGVRD [ESD6/10/40] | 0

Sequence | Rank (ECL) PTmAb0005
CQAMDAEILNQV [ESB12] | 0
ECKVDGQLSDSPLLRNN [ESC45] | 0
ECRGPNMQMQDHCPTTD [IgEC9] | 10
GGWQESDIPGR [ESB32] | 0
GQMMDTELLNR [ESB1/6etc] | 0
HCCRIDREVSGA [ESB24] | 0
HCKNEFKKGQWTYSCSD [IgEC43] | 0
QIDRQITDTLL [ESB15] | 0
REQQISDVPRV [ESB26] | 0
RGRNQIMDLEI [ESB29/36] | 0
SCNLNHQSCDIPPVKQI [ESC46] | 0
SMEGQVRDIQV [ESB7] | 0
SMGQEVDRELV [ESB40] | 0
SMGQKVDRELV [ESB9] | 0
TCCVTDIPPPDYEQSLG [IgEC83] | 0
YQQRDLELLAE [ESB18] | 0
